Test results published in patent US20100197740A1, “Method of Screening Compounds Having Anti-Amyloid Properties” (LES LABORATOIRES SERVIER, priority 2006, published 2010).

Experiments:
Aβ42-α7 nAChR complexes [1] = target: T1, Aβ42-α7 nAChR complexes (Homo sapiens, UniProt P36544); experiment: Dissociation of Aβ42-α7 nAChR complexes already present in frontal cortex synaptosomes of Alzheimer's disease patients (immunoprecipitation, Western blot); assay type: binding
T1 construct: dissociation of the complexes already present in the diseased human tissues; tissue Harvard Brain Tissue Resource Center and Analytical Biological Services; host or cells: post-mortem frontal cortex synaptosomes of Alzheimer's disease patients
T1 sequence (P36544 23-502, one chain of several): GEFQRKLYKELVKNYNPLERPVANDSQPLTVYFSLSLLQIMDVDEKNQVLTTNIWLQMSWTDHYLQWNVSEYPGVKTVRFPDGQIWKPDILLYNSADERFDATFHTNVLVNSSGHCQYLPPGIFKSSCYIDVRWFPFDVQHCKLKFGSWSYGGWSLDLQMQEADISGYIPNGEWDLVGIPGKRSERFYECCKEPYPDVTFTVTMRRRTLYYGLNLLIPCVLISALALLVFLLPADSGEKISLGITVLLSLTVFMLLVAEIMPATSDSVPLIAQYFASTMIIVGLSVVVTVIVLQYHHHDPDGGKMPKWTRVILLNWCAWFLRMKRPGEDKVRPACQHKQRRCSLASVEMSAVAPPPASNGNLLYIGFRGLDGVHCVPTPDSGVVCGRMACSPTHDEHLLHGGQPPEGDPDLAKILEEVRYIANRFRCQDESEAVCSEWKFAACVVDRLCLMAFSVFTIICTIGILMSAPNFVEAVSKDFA
Protocol: FIG. 3: Western blot illustrating the dissociation, caused by S 24795, of Aβ42-α7 nAChR complexes obtained post-mortem from frontal cortex synaptosomes of Alzheimer's disease patients or control subjects. The Aβ42-α7 nAChR complexes are incubated in the medium (Krebs-Ringer) on its own or in the presence of S 24795 (1, 10, 30 or 100 μM) for 10 minutes and then in the presence or absence of Aβ42 (100 nM).
FIG. 4: Quantification of the dissociation of the interaction of α7 nAChR receptors associated with Aβ42 in human frontal cortex synaptosomes obtained post-mortem from Alzheimer's disease patients and control subjects and incubated with S 24795 (from 1 to 100 μM) and then in the presence or absence of Aβ42 (100 nM). *: p<0.01 for controls and Alzheimer's disease patients, Newman-Keuls test for multiple comparisons.
(§1) 100 mg of post-mortem frontal cortex ground on ice are homogenised in 10 volumes of 10 mM HEPES pH 7.4 maintained on ice and oxygenated in the presence of […] sucrose and 0.1 mM EDTA and then mixed in a Teflon/glass tissue grinder at 4° C. in a homogenisation solution containing 25 mM HEPES pH 7.5, 1 mM EDTA, 50 μg/ml of leupeptin, 10 μg/ml of aprotinin, 2 μg/ml of soy trypsin inhibitor, 0.04 mM PMSF, a mixture of phosphatase inhibitor proteins, and 0.2% […].
The homogenate is centrifuged, firstly, at 1000 g and 4° C. for 10 minutes. The supernatant obtained in that first centrifugation is centrifuged for a second time at 15000 g for 30 minutes to obtain a sediment of synaptosomes.
The sediment of synaptosomes is washed twice by suspension in 10 ml of Krebs-Ringer solution, maintained on ice, comprising 25 mM HEPES pH 7.4, 118 mM NaCl, 4.8 mM KCl, 25 mM NaHCO3, 1.3 mM CaCl2, 1.2 mM MgSO4, 1.2 mM KH2PO4, 10 mM glucose, 100 μM ascorbic acid, 50 μg/ml of leupeptin, 10 μg/ml of aprotinin, 2 μg/ml of soy trypsin inhibitor, 0.04 mM PMSF and a mixture of phosphatase inhibitor proteins, aerated for 10 minutes using 95% O2/5% CO2 and then centrifuged again at 15000 g for 10 minutes at 4° C. The washed synaptosomes are then suspended in 1 ml of oxygenated Krebs-Ringer solution and the protein concentration of said synaptosome suspension is determined by the Bradford method.
The human cortex synaptosomes are incubated in an oxygenated Krebs-Ringer solution in the presence of the compound S 24795 at 37° C. for 30 minutes in a total incubation volume of 500 μl. The compound S 24795 is present in the reaction mixture at a concentration of 1 μM, 10 μM, 30 μM or 100 μM. Depending on the experiments being carried out, the synaptosomes are also incubated in the presence of 100 nM Aβ42 or in the presence of the vehicle. […]

Aβ42-α7 nAChR complexes [2] = target: T1, Aβ42-α7 nAChR complexes; experiment: Inhibition of formation of Aβ42-α7 nAChR complexes in post-mortem frontal cortex synaptosomes (immunoprecipitation, Western blot); assay type: binding; details: S 24795 30 μM added before Aβ peptides (Aβ42 100 nM); non-diseased control human cortex synaptosomes
Protocol: FIG. 1: Western blot illustrating the inhibition, by S 24795, of Aβ42-α7 nAChR complexes obtained post-mortem from frontal cortex synaptosomes of Alzheimer's disease patients or control subjects. The Aβ42-α7 nAChR complexes are incubated in the medium (Krebs-Ringer) on its own or in the presence of S 24795 (30 μM) for 10 minutes, followed by incubation in the presence of Aβ42 peptide for 30 minutes.
FIG. 2: Quantification of the inhibition of the formation of Aβ42-α7 nAChR complexes in human frontal cortex synaptosomes obtained post-mortem from Alzheimer's disease patients and control subjects and incubated with S 24795 (30 μM)—or not—and then with Aβ42 peptides (100 nM). *: p<0.01 for controls and Alzheimer's disease patients, Newman-Keuls test for multiple comparisons.
as §1
The homogenate is centrifuged, firstly, at 1000 g and 4° C. for 10 minutes. […]

α7 nAChR and NMDAR = experiment: Functional recovery: 45Ca2+ entry into frontal cortex synaptosomes via α7 and NMDA receptors; assay type: biochemical, human
Protocol: FIG. 5: Quantification of the entry of ^45Ca^2+ into human frontal cortex synaptosomes obtained post-mortem from Alzheimer's disease patients and from control subjects and treated with S 24795. The control brain slices are incubated in the presence of Aβ42 (1 μM)—or not—prior to the treatment with S 24795 (10 μM). Calcium entry is brought about either by α7 agonist (PNU282987) or by NMDA added to glycine.
The functional recovery experiments are carried out using brains according to I.2 obtained from patients according to I.1.
The functional recovery brought about by the treatment with S 24795 (10 μM) is evaluated with reference to the calcium influx via α7 and NMDA receptors. It was tested after 1 hour of treatment with S 24795 on control brains exposed to Aβ42 (30 minutes) and on brains of Alzheimer's disease patients. The treatments using Aβ42 (1 μM) and S 24795 (10 μM) are carried out on slices of cortex obtained from those brains. Synaptosomes are then prepared as described in I.4. In order to evaluate the Ca^2+ influxes via the α7 and NMDA receptors, the synaptosomes are incubated in the presence of ^45Ca^2+ (5 μM) for 5 minutes at 37° C. in Krebs-Ringer medium. The Ca^2+ fluxes are brought about for α7 selective α7nAChR receptor agonist, PNU282987 (0.1, 1 and 10 μM), and for the NMDAR receptors by the addition of NMDA (0.1, 1, 10 μM) and glycine (1 μM). The reaction is stopped by the addition of Krebs-Ringer (4° C.) containing EGTA but not containing calcium. After two washings, the synaptosomes are lysed by sonication in ethanol (95%) and the radioactivity is counted by liquid scintillation spectrometry. The specificity of the calcium influxes is checked by means of the addition of selective inhibitors of the α7 receptor (α-bungarotoxin) and of the NMDA receptor (AP-5).

Q: What does the source list for “1-(4-bromophenyl)-2-(1-methyl-2-pyridiniumyl)-1-ethanone chloride or iodide [S 24795]”?
A: reduction in the Aβ42-α7 nAChR complexes previously present in the diseased brain extracts (Aβ42-α7 nAChR complexes [1]; S 24795 1 μM, absence of exogenous Aβ peptides, Alzheimer's disease synaptosomes): about 22%; reduction in the Aβ42-α7 nAChR complexes previously present in the diseased brain extracts (Aβ42-α7 nAChR complexes [1]; S 24795 10, 30 and 100 μM, absence of exogenous Aβ peptides, dose-dependent): substantial; reduction of non-dissociated Aβ42-α7 nAChR complexes (Aβ42-α7 nAChR complexes [1]; S 24795 at the highest concentration (100 μM), absence of exogenous Aβ peptides, Alzheimer's disease synaptosomes, p<0.01): ~63%; reduction in the amount of Aβ42-α7 nAChR complexes present in the diseased brains (Aβ42-α7 nAChR complexes [1]; synaptosomes from cortices of Alzheimer's disease patients, S 24795 30 μM, Aβ peptides added (FIG. 1)): substantial reduction; reduction of the amount of Aβ42-α7 nAChR complexes formed (Aβ42-α7 nAChR complexes [2]): 92%; Ca2+ entry level as % of the control values without Aβ (α7 nAChR and NMDAR; after S 24795 10 μM, brains of Alzheimer's disease patients and of controls pretreated with Aβ (comparable levels)): about 65%; increase in Ca2+ entry compared to the brains of untreated Alzheimer's disease patients (α7 nAChR and NMDAR; brains of Alzheimer's disease patients, S 24795 10 μM for 1 hour): ~75%; re-establishment of Ca2+ entry (α7 nAChR and NMDAR; control brain slices exposed to Aβ42 (1 μM), then S 24795 10 μM for 1 hour): substantial re-establishment
